The record followed here is US11945794B2, “Nuclear transport modulators and uses thereof” (Karyopharm Therapeutics Inc., priority 2013, dated 2024).

Common to all, as to assay: MTT cell proliferation assay
Holding throughout (assay type): cell-based

Assay [1] has as its system 3T3 cells. Particulars: Mus musculus, NIH3T3, approximately 64-72 hours. As for the experimental part:
(§1) The MTT cell proliferation assay was used to study the cytotoxic properties of the compounds. The assay was performed according to the method described by Roche Molecular Biochemicals, with minor modifications. The assay is based on the cleavage of the tetrazolium salt, MTT, in the presence of an electron-coupling reagent. The water-insoluble formazan salt produced must be solubilized in an additional step. Cells grown in a 96-well tissue culture plate were incubated with the MTT solution for approximately 4 hours. After this incubation period, a water-insoluble formazan dye formed. After solubilization, the formazan dye was quantitated using a scanning multi-well spectrophotometer (ELISA reader). […] The cells were seeded at 5,000-10,000 cells in each well of 96-well plate in 100 μL of fresh culture medium and were allowed to attach overnight. The stock solutions of the compounds were diluted in 100 μL cell culture medium to obtain eight concentrations of each test compound, ranging from 1 nM to 30 μM. […] All optical densities were measured at 490 nm using a Vmax Kinetic Microplate Reader (Molecular Devices). In most cases, the assay was performed in duplicate and the results were presented as a mean percent inhibition to the negative control±SE. The following formula was used to calculate the percent of inhibition: Inhibition (%)=(1−(ODo/OD))×100.
(§2) The compounds were tested against Z138, MM1S and 3T3 cells. The Z138 cell line is a mature B-cell acute lymphoblastic leukemia cell line derived from a patient with chronic lumphocytic leukemia. The MM1S cell line was established from the peripheral blood of a human multiple myeloma patient. 3T3 cells are standard fibroblast cells; they were originally isolated from Swiss mouse embryo tissue.

For assay [2], the system named is MM1S cells. To be noted: Homo sapiens, MM1.S, approximately 64-72 hours. As for the experimental part:
as §1, §2

In assay [3] the test system is Z138 cells. To be noted: Homo sapiens, Z-138, approximately 64-72 hours. As to the method: as §1, §2

SMILES strings stand for the structures. A value given as a limit tells only on which side of the number the result lay.

Consider `O=C(O)/C(=C/n1cnc(-c2cc(C(F)(F)F)cc(C(F)(F)F)c2)n1)c1cccnc1` [Compound 103, (E)-3-(3-(3,5-bis(trifluoromethyl)phenyl)-1H-1,2,4-triazol-1-yl)-2-(pyridin-3-yl)acrylic acid], for which the IC50 in assay [1], in assay [2] and in assay [3] was over 30 µM throughout. Molecule `CC(C)OC(=O)/C(=C/n1cnc(-c2cc(C(F)(F)F)cc(C(F)(F)F)c2)n1)c1ccncc1` [Compound 106, isopropyl (E)-3-(3-(3,5-bis(trifluoromethyl)phenyl)-1H-1,2,4-triazol-1-yl)-2-(pyridin-4-yl)acrylate] gave an IC50 in assay [2] of 0.1 to 5 µM. For the molecule `O=C(O)/C(=C/n1cnc(-c2cc(C(F)(F)F)cc(C(F)(F)F)c2)n1)c1ccncc1` [Compound 107, (E)-3-(3-(3,5-bis(trifluoromethyl)phenyl)-1H-1,2,4-triazol-1-yl)-2-(pyridin-4-yl)acrylic acid], in assay [2], the IC50 fell in the range of 5 to 30 µM. In turn, `CC(C)OC(=O)/C(=C/n1cnc(-c2cc(C(F)(F)F)cc(C(F)(F)F)c2)n1)c1nccs1` [Compound 109, isopropyl (Z)-3-(3-(3,5-bis(trifluoromethyl)phenyl)-1H-1,2,4-triazol-1-yl)-2-(thiazol-2-yl)acrylate] showed an IC50 in assay [2] of 0.1 to 5 µM.

In the case of `N#C/C(=C/n1cnc(-c2cc(C(F)(F)F)cc(C(F)(F)F)c2)n1)c1nccs1` [Compound 110, (Z)-3-(3-(3,5-bis(trifluoromethyl)phenyl)-1H-1,2,4-triazol-1-yl)-2-(thiazol-2-yl)acrylonitrile], the IC50 in assay [2] was 0.1 to 5 µM. As to `CN(C)C(=O)/C(=C/n1cnc(-c2cc(C(F)(F)F)cc(C(F)(F)F)c2)n1)c1cccnc1` [Compound 112, (E)-3-(3-(3,5-bis(trifluoromethyl)phenyl)-1H-1,2,4-triazol-1-yl)-N,N-dimethyl-2-(pyridin-3-yl)acrylamide], the half-inhibitory concentration (IC50) in assay [2] was over 30 µM. In turn, `Cc1noc(C)c1/C(=C\n1cnc(-c2cc(C(F)(F)F)cc(C(F)(F)F)c2)n1)C(=O)O` [Compound 117, (E)-3-(3-(3,5-bis(trifluoromethyl)phenyl)-1H-1,2,4-triazol-1-yl)-2-(3,5-dimethylisoxazol-4-yl) acrylic acid] showed an IC50 in assay [2] of over 30 µM.

Molecule `COc1ccc(/C(=C\n2cnc(-c3cc(C(F)(F)F)cc(C(F)(F)F)c3)n2)C(=O)O)cn1` [Compound 121, (E)-3-(3-(3,5-bis(trifluoromethyl)phenyl)-1H-1,2,4-triazol-1-yl)-2-(6-methoxypyridin-3-yl) acrylic acid] returned an IC50 in assay [2] of over 30 µM. `CC(C)OC(=O)/C(=C/n1cnc(-c2cc(C(F)(F)F)cc(C(F)(F)F)c2)n1)c1ccoc1` [Compound 122, isopropyl (E)-3-(3-(3,5-bis (trifluoromethyl)phenyl)-1H-1,2,4-triazol-1-yl)-2-(furan-3-yl) acrylate] displayed an IC50 in assay [2] of 0.1 to 5 µM. Same read-out and setting: the figure for `O=C(O)/C(=C/n1cnc(-c2cc(C(F)(F)F)cc(C(F)(F)F)c2)n1)c1cncnc1` [Compound 123, (E)-3-(3-(3,5-bis(trifluoromethyl)phenyl)-1H-1,2,4-triazol-1-yl)-2-(pyrimidin-5-yl) acrylic acid] is over 30 µM; for `O=C(O)/C(=C/n1cnc(-c2cc(C(F)(F)F)cc(C(F)(F)F)c2)n1)c1cncc(F)c1` [Compound 125, (E)-3-(3-(3,5-bis(trifluoromethyl)phenyl)-1H-1,2,4-triazol-1-yl)-2-(5-fluoropyridin-3-yl)acrylic acid] it is over 30 µM.

`NC(=O)/C(=C/n1cnc(-c2cc(C(F)(F)F)cc(C(F)(F)F)c2)n1)c1cncc(F)c1` [Compound 126, (E)-3-(3-(3,5-Bis(trifluoromethyl)phenyl)-1H-1,2,4-triazol-1-yl)-2-(5-fluoropyridin-3-yl)acrylamide]: the IC50 in assay [1] was over 30 µM; in assay [2], under 0.1 µM; in assay [3] it was under 0.1 µM.

The molecule `COc1ccc(/C(=C\n2cnc(-c3cc(C(F)(F)F)cc(C(F)(F)F)c3)n2)C(N)=O)cn1` [Compound 127, (E)-3-(3-(3,5-bis-(trifluoromethyl)-phenyl)-1H-1,2,4-triazol-1-yl)-2-(6-methoxypyridin-3-yl)acrylamide] returned a concentration for half-maximal inhibition (IC50) in assay [2] of 0.1 to 5 µM. Consider `O=C(O)/C(=C/n1cnc(-c2cc(C(F)(F)F)cc(C(F)(F)F)c2)n1)c1ccoc1` [Compound 128, (E)-3-(3-(3,5-bis(trifluoromethyl)phenyl)-1H-1,2,4-triazol-1-yl)-2-(furan-3-yl) acrylic acid], for which, in assay [2], the IC50 is over 30 µM.

Molecule `NC(=O)/C(=C/n1cnc(-c2cc(C(F)(F)F)cc(C(F)(F)F)c2)n1)c1ccoc1` [Compound 129, (E)-3-(3-(3,5-bis(trifluoromethyl)phenyl)-1H-1,2,4-triazol-1-yl)-2-(furan-3-yl) acrylamide] came in with an IC50 in assay [2] of 0.1 to 5 µM.

Consider `Cn1cc(/C(=C\n2cnc(-c3cc(C(F)(F)F)cc(C(F)(F)F)c3)n2)C(=O)O)cn1` [Compound 131, (E)-3-(3-(3,5-bis(trifluoromethyl)phenyl)-1H-1,2,4-triazol-1-yl)-2-(1-methyl-1H-pyrazol-4-yl)acrylic acid], for which the IC50 in assay [2] is 0.1 to 5 µM.

On to `NC(=O)/C(=C/n1cnc(-c2cc(C(F)(F)F)cc(C(F)(F)F)c2)n1)c1ccnnc1` [Compound 133, (E)-3-(3-(3,5-bis(trifluoromethyl)phenyl)-1H-1,2,4-triazol-1-yl)-2-(pyridazin-4-yl)acrylamide], for which the IC50 was 5 to 30 µM in assay [1], under 0.1 µM in assay [2] and under 0.1 µM in assay [3]. With `NC(=O)/C(=C/n1cnc(-c2cc(C(F)(F)F)cc(C(F)(F)F)c2)n1)c1cccc(F)n1` [Compound 134, (E)-3-(3-(3,5-bis(trifluoromethyl)phenyl)-1H-1,2,4-triazol-1-yl)-2-(6-fluoropyridin-2-yl)acrylamide], the IC50 is 0.1 to 5 µM in assay [1], under 0.1 µM in assay [2] and 0.1 to 5 µM in assay [3]. In the case of `NC(=O)/C(=C/n1cnc(-c2cc(C(F)(F)F)cc(C(F)(F)F)c2)n1)c1cccnc1F` [Compound 135, (E)-3-(3-(3,5-bis(trifluoromethyl)phenyl)-1H-1,2,4-triazol-1-yl)-2-(2-fluoropyridin-3-yl)acrylamide], the IC50 in assay [1] is over 30 µM; in assay [2] it was under 0.1 µM; in assay [3], 0.1 to 5 µM.

Consider `NC(=O)/C(=C/n1cnc(-c2cc(C(F)(F)F)cc(C(F)(F)F)c2)n1)c1ccc(F)nc1` [Compound 139, (E)-3-(3-(3,5-bis(trifluoromethyl)phenyl)-1H-1,2,4-triazol-1-yl)-2-(6-fluoropyridin-3-yl)acrylamide], for which the IC50 in assay [1] is over 30 µM; in assay [2], 0.1 to 5 µM; in assay [3] it was 0.1 to 5 µM. For `NC(=O)/C(=C/n1cnc(-c2cc(C(F)(F)F)cc(C(F)(F)F)c2)n1)c1cccnc1Cl` [Compound 144, (E)-3-(3-(3,5-bis(trifluoromethyl)phenyl)-1H-1,2,4-triazol-1-yl)-2-(2-chloropyridin-3-yl)acrylamide], the IC50 in assay [1] is over 30 µM; in assay [2], 0.1 to 5 µM; in assay [3], 0.1 to 5 µM. On to `NC(=O)/C(=C/n1cnc(-c2cc(C(F)(F)F)cc(C(F)(F)F)c2)n1)c1ccccc1` [Compound 146, (E)-3-(3-(3,5-bis(trifluoromethyl)phenyl)-1H-1,2,4-triazol-1-yl)-2-phenylacrylamide], for which the concentration for half-maximal inhibition (IC50) in assay [1] is over 30 µM; in assay [2], 0.1 to 5 µM; in assay [3], 0.1 to 5 µM. In the case of `NC(=O)/C(=C/n1cnc(-c2cc(C(F)(F)F)cc(C(F)(F)F)c2)n1)c1ccc(-c2ccccc2)c(F)c1` [Compound 150, (E)-3-(3-(3,5-bis(trifluoromethyl)phenyl)-1H-1,2,4-triazol-1-yl)-2-(2-fluorobiphenyl-4-yl)acrylamide], the concentration for half-maximal inhibition (IC50) is over 30 µM in assay [1], 5 to 30 µM in assay [2] and 5 to 30 µM in assay [3]. Regarding `NC(=O)/C(=C/n1cnc(-c2cc(C(F)(F)F)cc(C(F)(F)F)c2)n1)c1ccc(-c2cccnc2)cc1` [Compound 151, (E)-3-(3-(3,5-bis(trifluoromethyl)phenyl)-1H-1,2,4-triazol-1-yl)-2-(4-(pyridin-3-yl)phenyl)acrylamide], the IC50 is over 30 µM in assay [1], 0.1 to 5 µM in assay [2] and 5 to 30 µM in assay [3]. For `NC(=O)/C(=C/n1cnc(-c2cc(C(F)(F)F)cc(C(F)(F)F)c2)n1)c1ccc2cn[nH]c2c1` [Compound 152, (E)-3-(3-(3,5-bis(trifluoromethyl)phenyl)-1H-1,2,4-triazol-1-yl)-2-(1H-indazol-6-yl)acrylamide] the same measures were over 30 µM, 0.1 to 5 µM and 0.1 to 5 µM. On to `NC(=O)/C(=C\n1cnc(-c2cc(C(F)(F)F)cc(C(F)(F)F)c2)n1)c1ccc(F)nc1` [Compound 154, (Z)-3-(3-(3,5-bis(trifluoromethyl)phenyl)-1H-1,2,4-triazol-1-yl)-2-(6-fluoropyridin-3-yl)acrylamide], for which the IC50 in assay [2] was in the range of 0.1 to 5 µM.
